Measurements as given in patent publication US4864023A, “Pyrido(3,2,1-IJ)-1,3,4-benzoxadiazine derivatives” (priority 1988, dated 1989).
Values after ≈ are worked out from the molar mass of the structure shown. Read-outs that look alike come from different tables or passages of the source.

Assays:
Assay in all cases: in vitro antibacterial activity, standard agar dilution method
Type in all cases: cell-based
[1] = system: Bacillus subtilis PCI 219; settings: PCI219, aerobic, read-out: minimum inhibitory concentration (MIC)
[2] = system: Staphylococcus aureus FDA 209P JC-1; settings: FDA209P; Staphylococcus aureus FDA 209P JC-1; aerobic; agar dilution; read-out: minimum inhibitory concentration (MIC)
[3] = system: Staphylococcus aureus NR 2855; settings: NR2855; Staphylococcus aureus NR 2855; aerobic; agar dilution; read-out: minimum inhibitory concentration (MIC)
[4] = system: Staphylococcus aureus Smith; settings: read-out: minimum inhibitory concentration (MIC)
[5] = system: Staphylococcus epidermidis IFO 12993; settings: IFO12993, aerobic, read-out: minimum inhibitory concentration (MIC)
[6] = system: Staphylococcus epidermidis NR 2942; settings: NR2942, aerobic, read-out: minimum inhibitory concentration (MIC)
[7] = system: Enterococcus faecalis NR 2943; settings: NR2943, aerobic, read-out: minimum inhibitory concentration (MIC)
[8] = system: Alcaligenes faecalis IFO 13111; settings: IFO13111, aerobic, read-out: minimum inhibitory concentration (MIC)
[9] = system: Citrobacter freundii IFO 12681; settings: IFO12681, aerobic, read-out: minimum inhibitory concentration (MIC)
[10] = system: Enterobacter aerogenes NR 2945; settings: Klebsiella aerogenes, NR2945, aerobic, read-out: minimum inhibitory concentration (MIC)
[11] = system: Enterobacter cloacae NR 2946; settings: NR2946, aerobic, read-out: minimum inhibitory concentration (MIC)
[12] = system: Escherichia coli NIHJ JC-2; settings: NIHJJC2, aerobic, read-out: minimum inhibitory concentration (MIC)
Escherichia coli NR 2630 = settings: NR2630; Escherichia coli NR 2630; aerobic; agar dilution; read-out: minimum inhibitory concentration (MIC)
[13] = system: Klebsiella pneumoniae FDA PCI 602; settings: FDAPCI602, aerobic, read-out: minimum inhibitory concentration (MIC)
[14] = system: Bordetella bronchiseptica ATCC 4617; settings: ATCC4617, aerobic, read-out: minimum inhibitory concentration (MIC)
[15] = system: Proteus rettgeri ATCC 14505; settings: Providencia rettgeri, ATCC14505, aerobic, read-out: minimum inhibitory concentration (MIC)
[16] = system: Proteus vulgaris OX19 ATCC 6898; settings: ATCC6898, aerobic, read-out: minimum inhibitory concentration (MIC)
[17] = system: Pseudomonas aeruginosa A3; settings: aerobic, read-out: minimum inhibitory concentration (MIC)
[18] = system: Pseudomonas aeruginosa NR 2950; settings: NR2950, aerobic, read-out: minimum inhibitory concentration (MIC)
[19] = system: Pseudomonas stutzeri IFO 12695; settings: Stutzerimonas stutzeri, IFO12695, aerobic, read-out: minimum inhibitory concentration (MIC)
[20] = system: Serratia marcescens IFO 12648; settings: IFO12648, aerobic, read-out: minimum inhibitory concentration (MIC)
[21] = system: Salmonella typhimurium IFO 12529; settings: Salmonella enterica, aerobic, read-out: minimum inhibitory concentration (MIC)
[22] = Staphylococcus aureus Smith, aerobic, agar dilution

Structure (SMILES)	MIC [1] [µg/mL]	MIC [2] [µg/mL]	MIC [3] [µg/mL]	MIC [5] [µg/mL]	MIC [6] [µg/mL]	MIC [7] [µg/mL]	MIC [8] [µg/mL]	MIC [9] [µg/mL]	MIC [10] [µg/mL]	MIC [11] [µg/mL]	MIC [12] [µg/mL]	MIC (Escherichia coli NR 2630) [µg/mL]	MIC [13] [µg/mL]	MIC [14] [µg/mL]	MIC [15] [µg/mL]	MIC [16] [µg/mL]	MIC [17] [µg/mL]	MIC [18] [µg/mL]	MIC [19] [µg/mL]	MIC [20] [µg/mL]	further results
CCN1CCN(c2c(F)cc3c(=O)c(C(=O)O)cn4c3c2OCN4C)CC1 [Example 42]	0.05 (≈ 0.133 µM)	0.39 (≈ 1.04 µM)	0.39 (≈ 1.04 µM)	0.39 (≈ 1.04 µM)	0.39 (≈ 1.04 µM)	6.25 (≈ 16.6 µM)	1.56 (≈ 4.14 µM)	0.05 (≈ 0.133 µM)	0.025 (≈ 0.0664 µM)	0.05 (≈ 0.133 µM)	0.05 (≈ 0.133 µM)	0.025 (≈ 0.0664 µM)	0.39 (≈ 1.04 µM)	0.39 (≈ 1.04 µM)	0.39 (≈ 1.04 µM)	0.025 (≈ 0.0664 µM)	0.39 (≈ 1.04 µM)	3.13 (≈ 8.32 µM)	0.1 (≈ 0.266 µM)	0.1 (≈ 0.266 µM)	MIC [4, 22]: 0.39 µg/mL (≈ 1.04 µM); MIC [21]: 0.025 µg/mL (≈ 0.0664 µM)
CN1COc2c(N3CCC(N)C3)c(F)cc3c(=O)c(C(=O)OCOC(=O)C(C)(C)C)cn1c23 (centres unmarked) [Example 63, pivaloyloxymethyl 10-(3-amino-1-pyrrolidinyl)-9-fluoro-3-methyl-7-oxo-2,3-dihydro-7H-pyrido[3,2,1-ij]-1,3,4-benzoxadiazine-6-carboxylate]	0.78 (≈ 1.69 µM)	0.78 (≈ 1.69 µM)	3.13 (≈ 6.77 µM)	1.56 (≈ 3.37 µM)	0.78 (≈ 1.69 µM)	25 (≈ 54.1 µM)	100 (≈ 216 µM)	0.78 (≈ 1.69 µM)	0.39 (≈ 0.843 µM)	1.56 (≈ 3.37 µM)	1.56 (≈ 3.37 µM)	0.78 (≈ 1.69 µM)	6.25 (≈ 13.5 µM)	50 (≈ 108 µM)	6.25 (≈ 13.5 µM)	0.39 (≈ 0.843 µM)	3.13 (≈ 6.77 µM)	25 (≈ 54.1 µM)	0.39 (≈ 0.843 µM)	3.13 (≈ 6.77 µM)	MIC ([4]; Staphylococcus aureus): 0.39 µg/mL (≈ 0.843 µM); MIC [21]: 0.78 µg/mL (≈ 1.69 µM)
CN1COc2c(N3CCN(CC(=O)O)CC3)c(F)cc3c(=O)c(C(=O)O)cn1c23 [Example 45]	0.39 (≈ 0.96 µM)	1.56 (≈ 3.84 µM)	3.13 (≈ 7.7 µM)	3.13 (≈ 7.7 µM)	3.13 (≈ 7.7 µM)	50 (≈ 123 µM)	12.5 (≈ 30.8 µM)	0.1 (≈ 0.246 µM)	0.05 (≈ 0.123 µM)	0.2 (≈ 0.492 µM)	0.2 (≈ 0.492 µM)	0.1 (≈ 0.246 µM)	0.39 (≈ 0.96 µM)	12.5 (≈ 30.8 µM)	0.78 (≈ 1.92 µM)	0.1 (≈ 0.246 µM)	0.78 (≈ 1.92 µM)	6.25 (≈ 15.4 µM)	0.05 (≈ 0.123 µM)	0.78 (≈ 1.92 µM)	MIC [4, 22]: 0.78 µg/mL (≈ 1.92 µM); MIC [21]: 0.1 µg/mL (≈ 0.246 µM)

Continued, in another order:

MIC [1] [µg/mL]	MIC [2] [µg/mL]	MIC [3] [µg/mL]	MIC [5] [µg/mL]	MIC [6] [µg/mL]	MIC [7] [µg/mL]	MIC [8] [µg/mL]	MIC [9] [µg/mL]	MIC [10] [µg/mL]	MIC [11] [µg/mL]	MIC [12] [µg/mL]	MIC (Escherichia coli NR 2630) [µg/mL]	MIC [13] [µg/mL]	MIC [14] [µg/mL]	MIC [15] [µg/mL]	MIC [16] [µg/mL]	MIC [17] [µg/mL]	MIC [18] [µg/mL]	MIC [19] [µg/mL]	MIC [20] [µg/mL]	Structure (SMILES)	further results
0.025 (≈ 0.069 µM)	0.013 (≈ 0.0359 µM)	0.2 (≈ 0.552 µM)	0.1 (≈ 0.276 µM)	0.1 (≈ 0.276 µM)	1.56 (≈ 4.31 µM)	6.25 (≈ 17.2 µM)	0.1 (≈ 0.276 µM)	0.025 (≈ 0.069 µM)	0.1 (≈ 0.276 µM)	0.1 (≈ 0.276 µM)	0.025 (≈ 0.069 µM)	0.78 (≈ 2.15 µM)	3.13 (≈ 8.64 µM)	0.78 (≈ 2.15 µM)	0.013 (≈ 0.0359 µM)	0.2 (≈ 0.552 µM)	1.56 (≈ 4.31 µM)	0.013 (≈ 0.0359 µM)	0.39 (≈ 1.08 µM)	CN1COc2c(N3CCC(CN)C3)c(F)cc3c(=O)c(C(=O)O)cn1c23 (centres unmarked) [Example 54, 10-[3-(aminomethyl)-1-pyrrolidinyl]-9-fluoro-3-methyl-7-oxo-2,3-dihydro-7H-pyrido[3,2,1-ij]-1,3,4-benzoxadiazine-6-carboxylic acid]	MIC [4, 22]: 0.025 µg/mL (≈ 0.069 µM); MIC [21]: 0.025 µg/mL (≈ 0.069 µM)
0.05 (≈ 0.145 µM)	0.2 (≈ 0.581 µM)	0.39 (≈ 1.13 µM)	0.39 (≈ 1.13 µM)	0.2 (≈ 0.581 µM)	3.13 (≈ 9.09 µM)	3.13 (≈ 9.09 µM)	0.1 (≈ 0.29 µM)	0.1 (≈ 0.29 µM)	0.1 (≈ 0.29 µM)	0.1 (≈ 0.29 µM)	0.025 (≈ 0.0726 µM)	0.39 (≈ 1.13 µM)	1.56 (≈ 4.53 µM)	0.78 (≈ 2.27 µM)	0.0065 (≈ 0.0189 µM)	1.56 (≈ 4.53 µM)	6.25 (≈ 18.2 µM)	0.1 (≈ 0.29 µM)	0.78 (≈ 2.27 µM)	Cc1cn(-c2c(F)cc3c(=O)c(C(=O)O)cn4c3c2OCN4C)cn1 [Example 22]	MIC [4, 22]: 0.2 µg/mL (≈ 0.581 µM); MIC [21]: 0.1 µg/mL (≈ 0.29 µM)
